Measurements: paper PMC3652012 (Neuropharmacology, 2012)
Like-named read-outs stand apart in the source and are kept apart here.

Key:
[1] = system: GABAA receptor-mediated IPSCs in dentate granule cells; test: Whole-cell recording of evoked monosynaptic IPSCs in hippocampal slices; assay type: cell-based, rat; conditions: n=5; for 50% decay time of evoked IPSC: relative to control before drug; for amplitude of evoked IPSC: relative to control, p>0.05
[2] = system: extra-synaptic GABAA receptors in dentate granule neurons; assay type: cell-based, rat; conditions: CNQX, D-APV, TTX present
[3] = system: mIPSCs in dentate granule neurons; assay type: cell-based, rat; conditions: 1 μM TTX
[4] = target: α1(Q240W)β3γ2 GABAA receptors (Rattus norvegicus, UniProt P18508+P62813+P63079, Q268W); test: Whole-cell patch clamp, point-mutated receptor; assay type: cell-based; conditions: compared to wild-type α1β3γ2
[5] = target: α1β3(M286W)γ2 GABAA receptors (Rattus norvegicus, UniProt P18508+P62813+P63079, M311W); test: Whole-cell patch clamp, point-mutated receptor; assay type: cell-based; conditions: compared to wild-type α1β3γ2
[6] = target: α1β3(Y442W)γ2 GABAA receptors (Rattus norvegicus, UniProt P18508+P62813+P63079, Y467W); assay type: cell-based; conditions: compared to wild-type α1β3γ2
[7] = target: α1(S269I)β3γ2 GABAA receptors (Rattus norvegicus, UniProt P18508+P62813+P63079, S296I); test: Whole-cell patch clamp, point-mutated receptor; assay type: cell-based; conditions: compared to wild-type α1β3γ2
[8] = target: α1(Y410W)β3γ2 GABAA receptors (Rattus norvegicus, UniProt P18508+P62813+P63079, Y437W); test: Whole-cell patch clamp, point-mutated receptor; assay type: cell-based; conditions: compared to wild-type α1β3γ2
[9] = target: α1(T260F)β3γ2 GABAA receptors (Rattus norvegicus, UniProt P18508+P62813+P63079, T287F); test: Whole-cell patch clamp, point-mutated receptor; assay type: cell-based; conditions: compared to wild-type α1β3γ2
[10] = target: α1β3(T256F)γ2 GABAA receptors (Rattus norvegicus, UniProt P18508+P62813+P63079, T281F); test: Whole-cell patch clamp, point-mutated receptor; assay type: cell-based; conditions: compared to wild-type α1β3γ2
[11] = system: GABAA receptors; test: Direct activation of GABAA receptors in the absence of GABA; assay type: cell-based
[12] = target: T1, recombinant α1β3γ2 GABAA receptors (Rattus norvegicus, UniProt P18508+P62813+P63079); test: Whole-cell patch clamp of transfected HEK-293T cells; conditions: for effect on peak amplitude of the response to saturating GABA: 10 μM modulator with 1 mM GABA, whole-cell; for effect on peak amplitude of the response to saturating GABA / maximum enhancement of the GABA response: −50 mV; for maximum enhancement of the GABA response: co-applied 5 sec with EC5–10 GABA (1 μM), response to GABA alone = 100%
[13] = target: recombinant α1β3δ GABAA receptors (Rattus norvegicus, UniProt P18506+P62813+P63079); test: as above; conditions: for effect on peak response to saturating GABA: 10 μM modulator with 1 mM GABA, whole-cell, −50 mV
[14] = target: recombinant α4β3δ GABAA receptors (Rattus norvegicus, UniProt P18506+P28471+P63079); test: as above; conditions: 10 μM co-applied with EC5–10 GABA
[15] = target: recombinant α1β3 GABAA receptors (Rattus norvegicus, UniProt P62813+P63079); test: as above; conditions: 10 μM co-applied with EC5–10 GABA
[16] = system: recombinant GABAA receptors: six α subtypes with β3 and γ2, three β subtypes with α1 and γ2, three γ subtypes with α1 and β3; test: Whole-cell patch clamp, receptors with varying α, β or γ subtype; conditions: 10 μM co-applied with EC5–10 GABA for each isoform
[17] = target: T1, recombinant α1β3γ2 GABAA receptors; test: Outside-out macropatch recording, deactivation after brief GABA application; conditions: for increase of weighted mean deactivation rate / weighted mean deactivation rate in presence of modulator: 10 μM modulator co-applied with 1 mM GABA for 5 msec, −70 mV
[18] = magnolol 30 μM (Fig 1: 30–60 μM), n=7
[19] = honokiol (Fig 1: 30–60 μM), n=6

T1 sequence (P62813 28-455): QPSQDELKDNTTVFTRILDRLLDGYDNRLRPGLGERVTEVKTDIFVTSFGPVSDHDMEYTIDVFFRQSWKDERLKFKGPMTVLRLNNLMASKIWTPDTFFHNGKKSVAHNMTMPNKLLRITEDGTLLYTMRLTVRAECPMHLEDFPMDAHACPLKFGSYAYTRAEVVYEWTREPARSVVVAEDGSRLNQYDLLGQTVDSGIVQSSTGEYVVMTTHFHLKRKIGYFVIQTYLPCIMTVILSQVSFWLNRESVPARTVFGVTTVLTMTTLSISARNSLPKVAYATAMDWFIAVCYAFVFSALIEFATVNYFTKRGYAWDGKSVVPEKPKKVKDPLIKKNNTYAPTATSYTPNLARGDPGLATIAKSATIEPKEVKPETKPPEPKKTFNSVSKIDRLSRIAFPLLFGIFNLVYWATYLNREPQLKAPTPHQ
T1 sequence (P63079 26-473): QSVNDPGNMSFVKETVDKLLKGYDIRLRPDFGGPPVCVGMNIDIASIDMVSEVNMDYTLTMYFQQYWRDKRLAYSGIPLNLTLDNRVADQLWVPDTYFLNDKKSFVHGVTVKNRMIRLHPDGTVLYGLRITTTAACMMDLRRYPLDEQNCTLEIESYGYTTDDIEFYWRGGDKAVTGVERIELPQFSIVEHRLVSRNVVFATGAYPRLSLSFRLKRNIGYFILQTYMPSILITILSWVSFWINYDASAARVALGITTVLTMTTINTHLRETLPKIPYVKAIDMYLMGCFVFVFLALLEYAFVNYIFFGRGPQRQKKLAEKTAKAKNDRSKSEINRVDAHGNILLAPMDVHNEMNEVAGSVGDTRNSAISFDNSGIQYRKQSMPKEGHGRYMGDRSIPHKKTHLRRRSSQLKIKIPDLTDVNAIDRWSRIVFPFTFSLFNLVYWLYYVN
T1 sequence (P18508 39-466): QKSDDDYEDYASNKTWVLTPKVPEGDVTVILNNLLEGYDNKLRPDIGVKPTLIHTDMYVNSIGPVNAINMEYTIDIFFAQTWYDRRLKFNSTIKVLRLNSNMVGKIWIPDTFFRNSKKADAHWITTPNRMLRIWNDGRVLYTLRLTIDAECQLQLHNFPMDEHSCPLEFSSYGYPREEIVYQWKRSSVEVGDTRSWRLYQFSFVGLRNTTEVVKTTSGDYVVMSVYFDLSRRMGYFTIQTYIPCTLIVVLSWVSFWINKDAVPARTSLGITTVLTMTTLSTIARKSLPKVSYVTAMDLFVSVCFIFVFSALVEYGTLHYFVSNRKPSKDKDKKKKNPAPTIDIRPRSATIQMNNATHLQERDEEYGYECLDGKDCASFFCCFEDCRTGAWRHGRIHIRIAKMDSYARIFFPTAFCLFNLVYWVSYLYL
recombinant α1β3δ GABAA receptors, sequence (P62813 28-455): as the sequence (P62813 28-455) above
recombinant α1β3δ GABAA receptors, sequence (P63079 26-473): as the sequence (P63079 26-473) above
recombinant α1β3δ GABAA receptors, sequence (P18506 17-449 limits assumed): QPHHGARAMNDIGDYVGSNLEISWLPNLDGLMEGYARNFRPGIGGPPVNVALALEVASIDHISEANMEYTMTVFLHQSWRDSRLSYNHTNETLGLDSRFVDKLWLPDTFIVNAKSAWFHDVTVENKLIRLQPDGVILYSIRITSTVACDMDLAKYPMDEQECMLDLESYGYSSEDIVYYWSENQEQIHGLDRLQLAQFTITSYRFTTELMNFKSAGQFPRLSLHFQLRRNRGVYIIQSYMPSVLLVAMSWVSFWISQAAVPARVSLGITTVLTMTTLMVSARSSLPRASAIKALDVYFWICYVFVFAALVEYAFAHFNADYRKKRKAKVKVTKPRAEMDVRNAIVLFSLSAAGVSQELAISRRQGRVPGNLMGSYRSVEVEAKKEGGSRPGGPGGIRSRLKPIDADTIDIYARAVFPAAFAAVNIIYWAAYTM
α1(S269I)β3γ2 GABAA receptors, sequence (P62813 28-455 S296I): as the sequence (P62813 28-455) above, with S269I counted along it
α1(S269I)β3γ2 GABAA receptors, sequence (P63079 26-473): as the sequence (P63079 26-473) above
α1(S269I)β3γ2 GABAA receptors, sequence (P18508 39-466): as the sequence (P18508 39-466) above
α1(Y410W)β3γ2 GABAA receptors, sequence (P62813 28-455 Y437W): as the sequence (P62813 28-455) above, with Y410W counted along it
α1(Y410W)β3γ2 GABAA receptors, sequence (P63079 26-473): as the sequence (P63079 26-473) above
α1(Y410W)β3γ2 GABAA receptors, sequence (P18508 39-466): as the sequence (P18508 39-466) above
α1(T260F)β3γ2 GABAA receptors, sequence (P62813 28-455 T287F): as the sequence (P62813 28-455) above, with T260F counted along it
α1(T260F)β3γ2 GABAA receptors, sequence (P63079 26-473, stated change not applied): as the sequence (P63079 26-473) above
α1(T260F)β3γ2 GABAA receptors, sequence (P18508 39-466): as the sequence (P18508 39-466) above
α1(Q240W)β3γ2 GABAA receptors, sequence (P62813 28-455 Q268W): as the sequence (P62813 28-455) above, with Q241W counted along it
α1(Q240W)β3γ2 GABAA receptors, sequence (P63079 26-473): as the sequence (P63079 26-473) above
α1(Q240W)β3γ2 GABAA receptors, sequence (P18508 39-466): as the sequence (P18508 39-466) above
α1β3(M286W)γ2 GABAA receptors, sequence (P62813 28-455): as the sequence (P62813 28-455) above
α1β3(M286W)γ2 GABAA receptors, sequence (P63079 26-473 M311W): as the sequence (P63079 26-473) above, with M286W counted along it
α1β3(M286W)γ2 GABAA receptors, sequence (P18508 39-466): as the sequence (P18508 39-466) above
α1β3(T256F)γ2 GABAA receptors, sequence (P62813 28-455, stated change not applied): as the sequence (P62813 28-455) above
α1β3(T256F)γ2 GABAA receptors, sequence (P63079 26-473 T281F): as the sequence (P63079 26-473) above, with T256F counted along it
α1β3(T256F)γ2 GABAA receptors, sequence (P18508 39-466): as the sequence (P18508 39-466) above
α1β3(Y442W)γ2 GABAA receptors, sequence (P62813 28-455): as the sequence (P62813 28-455) above
α1β3(Y442W)γ2 GABAA receptors, sequence (P63079 26-473 Y467W): as the sequence (P63079 26-473) above, with Y442W counted along it
α1β3(Y442W)γ2 GABAA receptors, sequence (P18508 39-466): as the sequence (P18508 39-466) above
recombinant α1β3 GABAA receptors, sequence (P62813 28-455): as the sequence (P62813 28-455) above
recombinant α1β3 GABAA receptors, sequence (P63079 26-473): as the sequence (P63079 26-473) above
recombinant α4β3δ GABAA receptors, sequence (P28471 36-552): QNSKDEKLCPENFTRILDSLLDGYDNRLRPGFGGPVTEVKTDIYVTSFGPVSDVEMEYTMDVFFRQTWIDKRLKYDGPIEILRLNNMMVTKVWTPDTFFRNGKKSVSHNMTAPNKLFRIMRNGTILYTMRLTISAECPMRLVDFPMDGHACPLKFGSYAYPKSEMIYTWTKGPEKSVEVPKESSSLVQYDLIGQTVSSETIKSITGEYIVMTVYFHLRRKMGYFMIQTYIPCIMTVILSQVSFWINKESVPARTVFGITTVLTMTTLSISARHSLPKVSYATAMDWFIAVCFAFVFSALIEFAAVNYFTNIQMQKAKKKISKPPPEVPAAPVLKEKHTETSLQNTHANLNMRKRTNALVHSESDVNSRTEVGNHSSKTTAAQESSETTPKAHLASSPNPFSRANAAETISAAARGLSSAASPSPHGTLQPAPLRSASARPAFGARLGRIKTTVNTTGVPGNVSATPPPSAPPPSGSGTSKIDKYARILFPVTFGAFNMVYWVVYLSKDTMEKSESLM
recombinant α4β3δ GABAA receptors, sequence (P63079 26-473): as the sequence (P63079 26-473) above
recombinant α4β3δ GABAA receptors, sequence (P18506 17-449 limits assumed): as the sequence (P18506 17-449 limits assumed) above

Compound | impact of mutation on modulation [4] | impact of mutation on potentiation [5] | impact of mutation on potentiation [6] | impact of mutation on potentiation [7] | impact of mutation on potentiation [8] | impact of mutation on modulation [9] | impact of mutation on modulation [10] | concentration at which agonist activity (direct activation) was observed [11] | EC50 [12] [nM] | effect on peak amplitude of the response to saturating GABA [12] | maximum enhancement of the GABA response [12] [%] | EC50 [13] [nM] | effect on peak response to saturating GABA [13] | enhancement of the GABA response [14] | response (potentiation) of receptors lacking γ or δ [15] | potentiation across receptor isoforms (α, β, γ subtype selectivity) [16] | increase of weighted mean deactivation rate [17] [%] | weighted mean deactivation rate in presence of modulator [17] [ms] | further results
C=CCc1ccc(O)c(-c2cc(CC=C)ccc2O)c1 [magnolol, 5,5′-diallyl-2,2′-dihydroxybiphenyl] | no impact | retained wild-type potentiation | retained wild-type potentiation | retained wild-type potentiation | retained wild-type potentiation | neither of these mutations had any impact | neither of these mutations had any impact | above 10 μM | 1240 ± 210 | no effect | 467.6±24.6 | 3400 ± 700 | nearly doubled | large enhancement, similar to that of α1β3δ | responded to a level comparable to the γ-containing receptors | potentiated to a similar degree, with no apparent selectivity among the subtypes | 171.8 | 104.3 ± 16.2 | 50% decay time of evoked IPSC ([1]; magnolol 30 μM bath applied): 267.7±7.9%; amplitude of evoked IPSC ([1]; magnolol 30 μM bath applied): 105.7±11.2%; increase of tonic GABAergic current [2, 18]: 402.5±61.7%; mIPSC amplitude ([3]; magnolol 30 μM (Fig 1: 30–60 μM)): not affected; mIPSC frequency [3, 18]: 476.2±108.5%; % area of the slower deactivation component in presence of modulator ([17]; 10 μM co-applied with 1 mM GABA for 5 msec, GABA alone 31.5±5.0): 41.8±8.1%; slow τ of deactivation in presence of modulator ([17]; 10 μM co-applied with 1 mM GABA for 5 msec, GABA alone 161.1±29.6): 228.4 ± 41.3 ms
C=CCc1ccc(O)c(-c2ccc(O)c(CC=C)c2)c1 [honokiol, 3,5′-diallyl-4,2′-dihydroxybiphenyl] | no impact | retained wild-type potentiation | retained wild-type potentiation | retained wild-type potentiation | retained wild-type potentiation | neither of these mutations had any impact | neither of these mutations had any impact | above 10 μM | 1170 ± 200 | no effect | 483.4±64.4 | 3800 ± 410 | nearly doubled | large enhancement, similar to that of α1β3δ | responded to a level comparable to the γ-containing receptors | potentiated to a similar degree, with no apparent selectivity among the subtypes | 147.2 | 113.5 ± 21.0 | 50% decay time of evoked IPSC ([1]; honokiol 60 μM bath applied): 299.5±16.6%; amplitude of evoked IPSC ([1]; honokiol 60 μM bath applied): 113.3±25.0%; enhancement of tonic GABAergic current [2, 19]: 351.2±79.0%; mIPSC amplitude ([3]; honokiol (Fig 1: 30–60 μM)): not affected; mIPSC frequency [3, 19]: 378.9±46.8%
